Experimental data published in patent publication US20250339569A1, “CARBONIC ANHYDRASE IX LIGANDS” (priority 2021, published 2025).
Starred links: 1 amine or outer side, 2 acyl side, 3 side chain; linkers in the order of their positions; H or OH if unused. Positions of bridges follow the written chain, without caps; N, C: chain ends. Non-standard residues stand in square brackets, D forms with d. Residues, ends and D or L forms follow the SMILES beside them. *: point of attachment. NH(CH2)5NHDOTA = O=C(O)CN1CCN(CC(=O)O)CCN(CC(=O)NCCCCCN*)CCN(CC(=O)O)CC1; X3 = O=C(O)CN1CCN(CC(=O)O)CCN(CC(=O)NCCCOCCOCCOCCCN*)CCN(CC(=O)O)CC1; DOTA = O=C(O)CN1CCN(CC(=O)O)CCN(CC(=O)*)CCN(CC(=O)O)CC1; mXylylene = c1cc(C[*:1])cc(C[*:2])c1; Suc = O=C(CCC(=O)[*:2])[*:1]; Nlys = NCCCCNCC(=O)O

Key:
[1] = target: T1, CAIX-expressing human HT-29 colorectal cancer cells (Homo sapiens, UniProt Q16790); experiment: FACS binding assay (IC50 determination, competition with tracer 3BP-2776 or 3BP-4149); conditions: FACS competition on HT-29 cells, Tracer ID 3BP-2776 (10 nM, biotin-labeled), 4° C., 1 hour; read-out: pIC50 category (activity) (converted)
T1 construct: CAIX-expressing human HT-29 colorectal cancer cells; host or cells: HT-29 human colorectal cancer cells
Method in brief: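 HT-29 cells in FACS buffer (PBS, 1% FCS) at 500.000 cells/ml were exposed to compounds competing with a labelled tracer, with biotinylated compounds detected by 1 μg/mL APC-streptavidin for 30 min on ice. APC/Cy5 median fluorescence was read by flow cytometry and IC50 derived by 4PL fit.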

[2] = target: T2, human carbonic anhydrase IX (hCAIX-Fc) (Homo sapiens, UniProt Q16790); experiment: Surface plasmon resonance assay with hCAIX-Fc; assay type: binding; conditions: 25° C.; for t1/2 category (activity): SPR dissociation half-life, hCAIX-Fc; for Kd: SPR, hCAIX-Fc captured, read-out: pKD category (activity) (converted)
T2 construct: purchased SinoBliological (Sino Biological) 10107-H02H

[3] = target: T3, Recombinant soluble human NEP (Homo sapiens, UniProt P08473); experiment: Proteolytic stability assay against NEP; assay type: in vitro ADME; conditions: 100 ng/mL NEP, 10 μM compound, 37°C
T3 construct: Recombinant soluble human NEP; purchased BioTechne, Wiesbaden, Germany
Description: (§1) To assess the stability of compounds against NEP, the compounds were subjected to an in vitro assay based on the protocol described by Edelson et al. (Edelson et al., Pulmonary pharmacology & therapeutics, 2013, 26, 229-238).
(§2) Recombinant soluble human NEP (BioTechne, Wiesbaden, Germany) at a concentration of 100 ng/mL was mixed with the compound (10 μM) and a stable internal standard (10 μM) and incubated at 37° C. After several time points, samples were taken and analyzed with LC-MS.
(§3) The activity of NEP was examined using a commercially available chromogenic substrate of NEP.

[4] = Plasma stability assay, mouse plasma; conditions: for % intact compound remaining (incubation time): mouse plasma, 37°C, 4 h; for remaining at 4 h, […]: mouse, plasma (K2EDTA)
NEP = target: T4, NEP (Homo sapiens, UniProt P08473); experiment: Proteolytic stability assay against NEP; assay type: in vitro ADME; conditions: human, recombinant soluble human NEP, 100 ng/mL NEP, 10 μM compound, 37°C, read-out: % intact compound remaining after 24 h incubation
T4 construct: Recombinant soluble human NEP; purchased BioTechne, Wiesbaden, Germany
Description: as §1, §2, §3

T3 sequence (P08473 52-750 limits assumed): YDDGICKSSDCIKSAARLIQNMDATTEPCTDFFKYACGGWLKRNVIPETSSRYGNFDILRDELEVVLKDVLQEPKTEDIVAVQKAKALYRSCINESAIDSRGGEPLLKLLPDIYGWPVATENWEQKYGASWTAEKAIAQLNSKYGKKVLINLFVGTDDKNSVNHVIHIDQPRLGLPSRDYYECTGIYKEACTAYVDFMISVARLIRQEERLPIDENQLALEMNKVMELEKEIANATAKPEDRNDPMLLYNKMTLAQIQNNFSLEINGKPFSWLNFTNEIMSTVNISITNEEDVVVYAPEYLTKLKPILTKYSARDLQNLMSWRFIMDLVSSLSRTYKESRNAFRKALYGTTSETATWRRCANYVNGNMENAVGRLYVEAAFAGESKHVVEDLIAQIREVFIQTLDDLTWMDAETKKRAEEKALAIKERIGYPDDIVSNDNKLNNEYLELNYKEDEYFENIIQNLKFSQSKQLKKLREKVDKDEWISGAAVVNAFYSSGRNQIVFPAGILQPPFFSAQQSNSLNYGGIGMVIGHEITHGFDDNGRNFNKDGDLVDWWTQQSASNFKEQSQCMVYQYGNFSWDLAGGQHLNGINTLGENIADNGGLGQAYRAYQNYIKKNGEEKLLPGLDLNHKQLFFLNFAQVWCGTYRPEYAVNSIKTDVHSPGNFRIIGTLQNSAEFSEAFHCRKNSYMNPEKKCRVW
T4 sequence (P08473 52-750 limits assumed): as above

With `CC(C)C[C@@H]1NC(=O)[C@H](Cc2c[nH]c3ccccc23)NC(=O)[C@H](CC(=O)O)NC(=O)CNC(=O)[C@H](CCC(=O)O)NC(=O)[C@@H](NC(=O)[C@H](Cc2ccc(O)cc2)NC(=O)[C@@H](NC(=O)CCC(=O)NCCCOCCOCCOCCCNC(=O)CN2CCN(CC(=O)O)CCN(CC(=O)O)CCN(CC(=O)O)CC2)C(C)C)CSCc2cccc(c2)CSC[C@@H](C(N)=O)NC(=O)[C@H](CCC(N)=O)NC(=O)[C@H](Cc2c[nH]c3ccccc23)NC(=O)[C@H]([C@@H](C)O)NC1=O` [3BP-2959] ({X3-Suc}-VYCEGDWLTWQC-NH2; linker 3-12 via mXylylene) the IC50 [1] was < 10 nM, the “t1/2 category (activity)” value [2] was “D (t1/2≤2.0 minutes)” and the “% intact compound remaining after 24 h incubation” value [3] was >95%. For the same compound, the “% intact compound remaining (incubation time)” value [4] was >95%.

With `CC(=O)N[C@H](C(=O)N[C@@H](Cc1ccc(O)cc1)C(=O)N[C@H]1CSCc2cccc(c2)CSC[C@@H](C(N)=O)NC(=O)[C@H](C)NC(=O)[C@H](Cc2c[nH]c3ccccc23)NC(=O)[C@H]([C@@H](C)O)NC(=O)[C@H](CC(C)C)NC(=O)[C@H](Cc2c[nH]c3ccccc23)NC(=O)[C@H](CC(=O)O)NC(=O)CNC(=O)[C@H](CCC(=O)O)NC1=O)C(C)C` [3BP-3058] (Ac-VYCEGDWLTWAC-NH2; linker 3-12 via mXylylene) the IC50 [1] was < 10 nM, the “t1/2 category (activity)” value [2] was “C (t1/2 between 2.1 and 5.0 minutes)” and the Kd [2] was < 10 nM. The remaining at 24 h, 10 μM (NEP) was > 95% and the remaining at 4 h, […] [4] was 95%.

In the case of `CC(=O)N[C@@H](CCCCNC(=O)CN1CCN(CC(=O)O)CCN(CC(=O)O)CCN(CC(=O)O)CC1)C(=O)N[C@H](C(=O)N[C@@H](Cc1ccc(O)cc1)C(=O)N[C@H]1CSCc2cccc(c2)CSC[C@@H](C(N)=O)NC(=O)[C@H](C)NC(=O)[C@H](Cc2c[nH]c3ccccc23)NC(=O)[C@H]([C@@H](C)O)NC(=O)[C@H](CC(C)C)NC(=O)[C@H](Cc2c[nH]c3ccccc23)NC(=O)[C@H](CC(=O)O)NC(=O)[C@H]2CCCN2C(=O)[C@H](CCC(=O)O)NC1=O)C(C)C` [3BP-3427] (Ac-K(DOTA)VYCE[dP]DWLTWAC-NH2; linker 4-13 via mXylylene), the IC50 [1] is reported as < 10 nM, the “% intact compound remaining after 24 h incubation” value [3] is reported as >95% and the “% intact compound remaining (incubation time)” value [4] is reported as >95%.

With `CC(=O)N[C@H](C(=O)N[C@@H](Cc1ccc(O)cc1)C(=O)N[C@H]1CSCc2cccc(c2)CSC[C@@H](C(=O)NCCCCCNC(=O)CN2CCN(CC(=O)O)CCN(CC(=O)O)CCN(CC(=O)O)CC2)NC(=O)[C@H](C)NC(=O)[C@H](Cc2c[nH]c3ccccc23)NC(=O)[C@H]([C@@H](C)O)NC(=O)[C@H](CC(C)C)NC(=O)[C@H](Cc2c[nH]c3ccccc23)NC(=O)[C@H](CC(=O)O)NC(=O)[C@H]2CCCN2C(=O)[C@H](CCC(=O)O)NC1=O)C(C)C` [3BP-3434, Ac-Val-Tyr-[Cys(3MeBn)-Glu-pro-Asp-Trp-Leu-Thr-Trp-Ala-Cys]-Ape-NH-DOTA] (Ac-VYCE[dP]DWLTWAC-{NH(CH2)5NHDOTA}; linker 3-12 via mXylylene) the IC50 [1] was < 10 nM, the “% intact compound remaining after 24 h incubation” value [3] was >95% and the “% intact compound remaining (incubation time)” value [4] was >95%.

For `CC(=O)N[C@H](C(=O)N[C@@H](Cc1ccc(O)cc1)C(=O)N[C@H]1CSCc2cccc(c2)CSC[C@@H](C(N)=O)NC(=O)[C@H](C)NC(=O)[C@H](Cc2c[nH]c3ccccc23)NC(=O)[C@H]([C@@H](C)O)NC(=O)[C@H](CC(C)C)NC(=O)[C@H](Cc2c[nH]c3ccccc23)NC(=O)[C@H](CC(=O)O)NC(=O)CN(CCCCNC(=O)CN2CCN(CC(=O)O)CCN(CC(=O)O)CCN(CC(=O)O)CC2)C(=O)[C@H](CCC(=O)O)NC1=O)C(C)C` [3BP-3562, Ac-Val-Tyr-[Cys(3MeBn)-Glu-Nlys(DOTA)-Asp-Trp-Leu-Thr-Trp-Ala-Cys]-NH2] (Ac-VYCE[Nlys](DOTA)DWLTWAC-NH2; linker 3-12 via mXylylene), the IC50 [1] was < 10 nM, the Kd [2] was < 10 nM and the remaining at 24 h, 10 μM (NEP) was > 95%. For the same compound, the remaining at 4 h, […] [4] was 89%.
